Results taken from patent US20240124503A1, “HETEROAROMATIC PHOSPHONIUM SALTS AND THEIR USE TREATING CANCER” (FLORATEK PHARMA S.A., priority 2021, published 2024).

Key:
SK-N-AS = assay: Cell viability assay, SK-N-AS; assay type: cell-based; conditions: Homo sapiens; brain carcinoma cell line SK-N-AS
Description: Antitumor activity of the compounds and doxorubicin as a positive control was assessed by using the CellTiter-Blue Cell Viability Assay (Promega, #G8082) or CellTiter-Glow® Luminescent Cell Viability assay (Promega #G7572) according to the manufacturer's instructions. The compounds were tested at 5 or 6 concentrations in half-log increments (highest concentration 30 μM or 100 μM) in duplicate or triplicate well conditions.
Tumor cells were grown at 37° C. in a humidified atmosphere with 5% CO2 in RPMI 1640 or DMEM medium, supplemented with 10% (v/v) fetal calf serum and 50 μg/ml gentamicin for up to 20 passages, and were passaged once or twice weekly. Cells were harvested using TrypLE or PBS buffer containing 1 mM EDTA, and the percentage of viable cells was determined using a CASY Model TI cell counter (OMNI Life Science). Cells were harvested from exponential phase cultures, counted and plated in 96 well flat-bottom microtiter plates at a cell density depending on the cell line's growth rate (4,000-20,000 cells/well depending on the cell line's growth rate, up to 60,000 for hematological cancer cell lines) in RPMI 1640 or DMEM medium supplemented with 10% (v/v) fetal calf serum and 50 μg/ml gentamicin (140 μl/well). […] Viability of cells was quantified by the CellTiter-Blue® cell viability assay (Promega G8081) or CellTiter-Glow® Luminescent Cell Viability assay (Promega #G7572). […]

ABL1-nonphosphorylated = target: T1, ABL1-nonphosphorylated (Homo sapiens, UniProt P00519); assay: KINOMEscan competition binding, ABL1-nonphosphorylated
T1 construct: purchased Eurofins (KINOMEscan); host or cells: E. coli BL21-derived host (T7 phage) or HEK-293
T1 sequence (P00519 whole entry): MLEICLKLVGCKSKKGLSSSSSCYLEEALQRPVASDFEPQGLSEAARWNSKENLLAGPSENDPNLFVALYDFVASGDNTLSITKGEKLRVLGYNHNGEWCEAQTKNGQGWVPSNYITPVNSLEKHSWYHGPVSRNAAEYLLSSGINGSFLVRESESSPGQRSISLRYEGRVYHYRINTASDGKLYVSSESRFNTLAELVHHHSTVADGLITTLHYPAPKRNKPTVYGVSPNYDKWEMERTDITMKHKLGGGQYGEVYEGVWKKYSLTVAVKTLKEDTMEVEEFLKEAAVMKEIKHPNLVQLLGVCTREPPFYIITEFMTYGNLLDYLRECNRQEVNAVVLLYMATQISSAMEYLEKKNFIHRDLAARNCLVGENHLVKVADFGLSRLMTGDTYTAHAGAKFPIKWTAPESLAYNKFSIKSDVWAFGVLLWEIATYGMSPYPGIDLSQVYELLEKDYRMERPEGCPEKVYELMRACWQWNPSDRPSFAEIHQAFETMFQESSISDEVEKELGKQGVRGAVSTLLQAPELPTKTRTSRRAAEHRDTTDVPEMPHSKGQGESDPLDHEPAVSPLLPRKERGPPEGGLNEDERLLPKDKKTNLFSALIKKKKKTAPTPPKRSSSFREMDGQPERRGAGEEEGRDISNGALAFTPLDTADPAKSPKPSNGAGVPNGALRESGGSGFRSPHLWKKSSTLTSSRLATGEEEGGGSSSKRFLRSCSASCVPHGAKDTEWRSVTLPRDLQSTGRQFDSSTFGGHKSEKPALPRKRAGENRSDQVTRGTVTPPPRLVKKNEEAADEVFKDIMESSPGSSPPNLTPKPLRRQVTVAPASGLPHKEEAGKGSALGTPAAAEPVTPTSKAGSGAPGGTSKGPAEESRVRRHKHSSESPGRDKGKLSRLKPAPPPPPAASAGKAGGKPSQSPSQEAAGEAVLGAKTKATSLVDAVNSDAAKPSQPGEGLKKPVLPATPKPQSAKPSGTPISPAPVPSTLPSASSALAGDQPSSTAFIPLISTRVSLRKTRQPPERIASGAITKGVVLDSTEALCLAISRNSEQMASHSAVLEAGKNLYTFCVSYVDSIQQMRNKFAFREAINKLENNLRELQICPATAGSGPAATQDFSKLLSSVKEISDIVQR
Description: Selected compounds were screened for kinase inhibition using the KINOMEscan™ assay (Eurofins) which is based on a competition binding assay that quantitatively measures the ability of a compound to compete with an immobilized, active-site directed ligand. The assay was performed by combining three components: DNA-tagged kinase; immobilized ligand; and the test compound. The ability of the test compound to compete with the immobilized ligand was measured via quantitative PCR of the DNA tag.
Kinase-tagged T7 phage strains were prepared in an E. coli host derived from the BL21 strain. E. coli were grown to log-phase and infected with T7 phage and incubated with shaking at 32° C. until lysis. The lysates were centrifuged and filtered to remove cell debris. The remaining kinases were produced in HEK-293 cells and subsequently tagged with DNA for qPCR detection. Streptavidin-coated magnetic beads were treated with biotinylated small molecule ligands for 30 minutes at room temperature to generate affinity resins for kinase assays. […] Kds were determined using an 11-point 3-fold compound dilution series with three DMSO control points. […] The kinase concentration in the eluates was measured by qPCR. […]
Binding constants (Kds) were calculated with a standard dose-response curve using the Hill equation: Response=Background+[Signal−Background/1+(Kd^Hill Slope/Dose^Hill Slope)] […]

`COc1c(O)ccc2c(=O)c(O)c(-c3ccc(CCCC[P+](c4ccccc4)(c4ccccc4)c4ccccc4)cc3)oc12` [SND190, (4-(4-(3,7-Dihydroxy-8-methoxy-4-oxo-4H1-chromen-2-yl)phenyl)butyl)triphenylphosphonium bromide] showed an IC50 (SK-N-AS) of 3 µM and a Kd (ABL1-nonphosphorylated) of 0.46 µM.
